We go through 34 compounds from article PMC11551755, “Structure-based discovery of first inhibitors targeting the helicase activity of human PIF1” (Nucleic Acids Research, 2024).

Experiment [1] concerns the target T1, FLhPIF1 (full length human PIF1) (Homo sapiens, UniProt Q9H611).
T1 construct: Full length human PIF1 (FLhPIF1) was expressed and purified as a His-SUMO fusion; His-SUMO (cleaved yes); made in house; 'following similar protocols' to hPIF1HD (ArcticExpress BL21(DE3) E. coli)
T1 sequence (Q9H611 1-641): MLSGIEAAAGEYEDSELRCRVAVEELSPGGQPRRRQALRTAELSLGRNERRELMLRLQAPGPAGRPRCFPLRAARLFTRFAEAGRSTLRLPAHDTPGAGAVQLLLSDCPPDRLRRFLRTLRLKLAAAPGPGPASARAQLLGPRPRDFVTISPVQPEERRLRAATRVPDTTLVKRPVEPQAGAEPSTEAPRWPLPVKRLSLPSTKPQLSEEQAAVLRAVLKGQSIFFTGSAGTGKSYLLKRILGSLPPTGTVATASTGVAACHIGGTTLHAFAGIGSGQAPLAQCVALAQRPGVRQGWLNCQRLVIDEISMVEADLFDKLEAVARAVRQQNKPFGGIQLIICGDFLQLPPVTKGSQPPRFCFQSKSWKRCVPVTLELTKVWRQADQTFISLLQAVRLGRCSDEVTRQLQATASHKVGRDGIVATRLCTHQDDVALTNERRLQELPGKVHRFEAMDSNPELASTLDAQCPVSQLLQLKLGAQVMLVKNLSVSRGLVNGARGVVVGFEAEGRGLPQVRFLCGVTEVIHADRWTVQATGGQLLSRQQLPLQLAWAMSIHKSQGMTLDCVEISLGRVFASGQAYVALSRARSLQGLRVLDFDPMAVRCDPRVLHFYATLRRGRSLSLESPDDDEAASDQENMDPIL
The experiment in a line: radiometric strand displacement helicase assay, no pre-incubation. In kind it is biochemical. The note with it: for inhibition at 1000 µM: 1 mM single point, gel-based DNA unwinding assay, four repeats (S4 n=3); for IC50: n = 3. The procedure:
Helicase activity was assayed using a radiometric strand displacement assay employing a partially single- and double-stranded substrate generated by annealing two oligonucleotides: 5′-(T)55-[…] and 5′-[…], as described previously ([19],[28]). […] SMIs (100 mM stocks in DMSO) were assayed at up to 2 mM without pre-incubation with FLhPIF1, unless otherwise stated. […] Dried gels were exposed to phosphorimaging plates (Fujifilm) for imaging and quantification (Fuji FLA3000, image gauge V3.3 software). IC50 values were analysed by non-linear regression (variable slope) using GraphPad Prism.

The target in a further experiment is T2, FLhPIF1 (Homo sapiens, UniProt Q9H611).
T2 construct: Full length human PIF1 (FLhPIF1) was expressed and purified as a His-SUMO fusion; His-SUMO (cleaved yes); made in house; 'following similar protocols' to hPIF1HD (ArcticExpress BL21(DE3) E. coli)
T2 sequence (Q9H611 1-641): T1 sequence (Q9H611 1-641)
The experiment in a line: helicase assay after pre-incubation of SMI with FLhPIF1. Format: biochemical. The procedure: Helicase activity was assayed using a radiometric strand displacement assay employing a partially single- and double-stranded substrate generated by annealing two oligonucleotides: 5′-(T)55-[…] and 5′-[…], as described previously ([19],[28]). The reaction buffer was 20 mM HEPES–NaOH pH 7.5, 20 mM NaCl, 5.5 mM MgCl2, 5 mM ATP, 1 mM DTT and 0.1 mg/ml BSA. SMIs (100 mM stocks in DMSO) were assayed at up to 2 mM without pre-incubation with FLhPIF1, unless otherwise stated. Reactions (0.1 nM substrate) were incubated at 37°C for 20 min, followed by addition of 0.2 volumes of 120 mM EDTA, 0.6% (w/v) SDS, 60% (v/v) glycerol and 0.1% (w/v) bromophenol blue before resolution of products by polyacrylamide gel electrophoresis (8%, 19:1 acrylamide:bis-acrylamide), 1× TBE (90 mM Tris–borate/2 mM EDTA, pH 8.3 with 0.05% (w/v) SDS buffer). Dried gels were exposed to phosphorimaging plates (Fujifilm) for imaging and quantification (Fuji FLA3000, image gauge V3.3 software). IC50 values were analysed by non-linear regression (variable slope) using GraphPad Prism.
First, we screened inhibitory activity of the SMIs listed in Table 1, following incubation of 100 nM FLhPIF1 with 100 μM SMI for 1 h at 22°C in the absence of substrates (ATP and DNA), before a 1:10 dilution into helicase reactions. […] Next, compounds 2, 5, 6 and 11, along with 4 and 1D were selected for analysis in a pre-incubation time-course (100 nM FLhPIF1, 100 μM SMI), up to 3 h before assaying helicase activity.
In parallel, IC50 values for inhibition of human UPF1 (hUPF1) helicase activity by the SMIs were also determined under the same conditions. UPF1-like SF1B helicases are the most closely related family of helicases to PIF1, with significant structural and mechanistic similarity ([52]).
Figure 6. SMI IC50 for dsDNA unwinding determined following pre-incubation. SMIs (0.0078–2 mM SMI) were incubated for 2 h at 22°C (100 nM FLhPIF1 or hUPF1) before dilution (1:10) in the standard helicase assay (0.1 nM DNA substrate). For 1D and 6, structures, electrophoresis of FLhPIF1 reaction product and graphs for IC50 value determination are shown. The graphed data include the activity of SMIs towards hUPF1 and IC50 values obtained are given. See Supplementary Figure S14 for the complete data set. TEXT PRINTED IN THE PICTURE: 1D: IC50 (μM): PIF1: 978 ± 221; IC50 (μM): UPF1: N.D. | 6: IC50 (μM): PIF1: 79.4 ± 16; IC50 (μM): UPF1: 1750 ± 426

Setting [2] is: 0.0078–2 mM compound, 10 nM FLhPIF1, 0.1 nM DNA substrate, no pre-incubation, read-out: IC50 for inhibition of FLhPIF1 helicase activity.

“And” between values parts separate entries of the source, which are not always exact repeats. Identical values can stand only once. Like-named read-outs stand apart in the source and are kept apart here.

As to `CC(=O)Nc1ccc(-c2csc(N)n2)cc1` [Compound 1E], the “helicase inhibitory activity compared to commercial batches 1A–1C” value in experiment [1] (0.0078-2 mM, no pre-incubation) is “significantly lower inhibitory activities”.

With `CC(=O)Nc1ccc(-c2csc(N)n2)cc1` [Compound 1F], the inhibition – broadly, the change of the read-out against control, counted positive when it falls – at 1000 µM in experiment [1] came to 14.2 ± 7%. Besides, the half-maximal inhibitory concentration (IC50) – broadly, the midpoint of a concentration-inhibition curve – in experiment [1] (setting [2]) was ~1160 µM and 1160 µM; in experiment [1] (no pre-incubation, value with large error, read-out: IC50 against FLhPIF1 helicase) it was about 1200 µM.

For `Nc1nc(-c2ccc([N+](=O)[O-])cc2)cs1` [Compound 3], in experiment [1], the inhibition at 1000 µM amounted to 85.6 ± 5.1%. Moreover, the IC50 in experiment [1] (setting [2]) worked out at 184 ± 13 µM.

As for `COC(=O)c1ccc(-c2csc(N)n2)cc1` [Compound 4], the IC50 stood at 300 ± 66 µM at FLhPIF1 (2 h pre-incubation at 22°C with 100 nM FLhPIF1, then 1:10 dilution into helicase assay, read-out: IC50 for dsDNA unwinding by FLhPIF1 following pre-incubation) and 78 ± 4 µM in experiment [1] (setting [2]). Besides, on FLhPIF1 (3 h pre-incubation, 100 nM FLhPIF1, 100 μM SMI), the “increase in inhibition of FLhPIF1 DNA unwinding after pre-incubation” value was 5–10%. Also, the inhibition at 1000 µM in experiment [1] was 72.4 ± 4.5%.

In the case of `CC(=O)Nc1ccc(-c2csc(NC(C)=O)n2)cc1` [Compound 7], the “fold increase in inhibition at 1 mM relative to compound 1” value in experiment [1] (1 mM single point helicase screen) is recorded as 4 fold. Also, the inhibition at 1000 µM in experiment [1] was 57 ± 14.7%. Further, the IC50 in experiment [1] (setting [2]) was determined as 569 ± 139 µM.

Consider `CNCCNc1cc(-c2csc(N)n2)ccc1[N+](=O)[O-]` [Compound 8], for which the inhibition at 1000 µM in experiment [1] turned out to be 77.8 ± 7.9%. For the same compound, the IC50 in experiment [1] (setting [2]) was found to be 176 ± 6 µM.

For the compound `CC(=O)Nc1ccc(-c2csc(N)n2)cc1N1CCNCC1` [Compound 9], the inhibition at 1000 µM in experiment [1] worked out at 69.1 ± 5.5%. Besides, in experiment [1] (setting [2]), the IC50 was found to be 307 ± 16 µM.

`CC(=O)Nc1ccc(-c2csc(C)n2)cc1` [S2]: in experiment [1], the “inhibition of FLhPIF1 helicase activity in 1 mM single-point screen” value (from here on “inhibition of FLhPIF1 helicase activity”) was “only minimal activity” and the inhibition at 1000 µM was -3 ± 2.8%.

Take `CNc1nc(-c2ccc(NC(C)=O)cc2)cs1` [S3]: the inhibition at 1000 µM in experiment [1] was -6.4 ± 2%.

For `COc1nc(-c2ccc(NC(C)=O)cc2)cs1` [S4], in experiment [1], the “inhibition of FLhPIF1 helicase activity” value is reported as “only minimal activity” and the inhibition at 1000 µM is 9.6 ± 2.8%.

Take `Cc1cccc(-c2csc(N)n2)c1` [S7]: in experiment [1], the inhibition at 1000 µM was -8.1 ± 1.9%.

`Cc1ccc(-c2csc(N)n2)cc1` [S8]: in experiment [1], the “inhibition of FLhPIF1 helicase activity” value was “incapable of inhibiting FLhPIF1 helicase activity effectively” and the inhibition at 1000 µM was 43.9 ± 5.7%.

With `N#Cc1cccc(-c2csc(N)n2)c1` [S9], the inhibition at 1000 µM in experiment [1] was -12.6 ± 4.6%.

On to `Nc1nc(-c2cccc(OC(F)(F)F)c2)cs1` [S10], for which the inhibition at 1000 µM in experiment [1] is 59.5 ± 1.7%.

With `Nc1nc(-c2ccc(OC(F)(F)F)cc2)cs1` [S11], the inhibition at 1000 µM in experiment [1] was found to be 58.3 ± 9.1%.

For the compound `COC(=O)c1cccc(-c2csc(N)n2)c1` [S12], the inhibition at 1000 µM in experiment [1] was -11 ± 1%.

For `CCCNC(=O)c1cccc(-c2csc(N)n2)c1` [S13], in experiment [1], the inhibition at 1000 µM stood at 0.2 ± 1.4%.

Regarding `CCN(CC)C(=O)c1ccc(-c2csc(N)n2)cc1` [S14], the inhibition at 1000 µM in experiment [1] was -4.6 ± 2.8%.

On to `CNC(=O)c1ccc(-c2csc(N)n2)cc1` [S15], for which the inhibition at 1000 µM in experiment [1] is 37.9 ± 4.3%.

`CCOc1ccc(-c2csc(N)n2)cc1` [S16]: in experiment [1], the inhibition at 1000 µM worked out at 25.9 ± 3.2%.

`Nc1nc(-c2ccc(Oc3ccccc3)cc2)cs1` [S17]: in experiment [1], the inhibition at 1000 µM is 61.7 ± 8.2%.

Consider `Nc1nc(-c2ccc(-c3ccccc3)cc2)cs1` [S18], for which, in experiment [1], the “inhibition of FLhPIF1 helicase activity” value is recorded as “incapable of inhibiting FLhPIF1 helicase activity effectively” and the inhibition at 1000 µM was -6.7 ± 7.3%.

For the compound `CS(=O)(=O)c1ccc(-c2csc(N)n2)cc1` [S19], the inhibition at 1000 µM in experiment [1] turned out to be 46.6 ± 15.5%.

As for `COC(=O)Cc1ccc(-c2csc(N)n2)cc1` [S20], in experiment [1], the inhibition at 1000 µM was 35.9 ± 9.9%.

On to `Nc1nc(-c2ccc(S(N)(=O)=O)cc2)cs1` [S21], for which the inhibition at 1000 µM in experiment [1] is -17.3 ± 4.2%.

With `CC(=O)Nc1ccc(-c2csc(N)n2)cc1C(C)=O` [S24], the inhibition at 1000 µM in experiment [1] came out at 10.4 ± 3.3%.

For `CC(=O)Nc1ccc(-c2csc(N)n2)cc1C(C)O` (centres unmarked) [S25], in experiment [1], the inhibition at 1000 µM worked out at 42.5 ± 13.5%.

Regarding `CCN(CC)c1cc(-c2csc(N)n2)ccc1NC(C)=O` [S47], in experiment [1], the inhibition at 1000 µM amounted to 24.6 ± 8.9%.

Turning to `CC(=O)Nc1ccc(-c2csc(N)n2)cc1N1CCOCC1` [S48], the inhibition at 1000 µM in experiment [1] was 11.5 ± 3.7%.

As to `CC(=O)Nc1ccc(-c2csc(N)n2)cc1N1CCN(C)CC1` [S49], the inhibition at 1000 µM in experiment [1] amounted to 24.3 ± 5.9%.

Consider `COc1cc(-c2csc(N)n2)ccc1NC(C)=O` [S50], for which the inhibition at 1000 µM in experiment [1] worked out at 22.1 ± 5%.

Take `CC(=O)Nc1ccc(-c2csc(N)n2)cc1OC1CCCC1` [S51]: the inhibition at 1000 µM in experiment [1] turned out to be 50 ± 4.2%.

Turning to `CC(=O)Nc1ccc(-c2csc(N)n2)cc1-c1cccnc1` [S55], in experiment [1], the “inhibition of FLhPIF1 helicase activity” value is “did not display any inhibitory activity at all” and the inhibition at 1000 µM is -17.3 ± 5%.

Consider `CC(=O)Nc1ccc(-c2csc(N)n2)cc1-c1cnn(C)c1` [S56], for which, in experiment [1], the “inhibition of FLhPIF1 helicase activity” value is listed as “did not display any inhibitory activity at all” and the inhibition at 1000 µM is -16.9 ± 4.5%.
